In US7423159B2, “Agent for preventing or treating neuropathy” (Takeda Pharmaceutical Company Limited, priority 2002, dated 2008):

Row | SMILES | melting point
1 | Cn1ncc(/C=C/C(=O)Nc2ccc(CCn3cccn3)cc2)c1-c1ccc(F)cc1 [Example 186, (2E)-3-[5-(4-Fluorophenyl)-1-methyl-1H-pyrazol-4-yl]-N-{4-[2-(1H-pyrazol-1-yl)ethyl]phenyl}acrylamide] | 205 to 206 °C
2 | COP(=O)(Cc1ccc(NC(=O)/C=C/c2cnn(C)c2-c2ccoc2)cc1)OC | 176 to 177 °C
3 | CCOP(=O)(Cc1ccc(NC(=O)CCc2cnn(-c3ccccc3)c2-c2ccccc2)cc1)OCC | 157 to 159 °C
4 | Cn1ncc(/C=C/C(=O)Nc2ccc(OCc3nnco3)cc2)c1-c1ccc(F)cc1 [Example 94, (2E)-3-[5-(4-Fluorophenyl)-1-methyl-1H-pyrazol-4-yl]-N-[4-(1,3,4-oxadiazol-2-ylmethoxy)phenyl]acrylamide] | 154 to 155 °C
5 | CCOP(=O)(Cc1ccc(NC(=O)/C=C/c2cnn(C)c2)cc1)OCC | 201 to 202 °C
6 | Cn1ncc(/C=C/C(=O)Nc2ccc3c(c2)oc(=O)n3C)c1-c1ccc(F)cc1 [Example 122, (2E)-3-[5-(4-Fluorophenyl)-1-methyl-1H-pyrazol-4-yl]-N-(3-methyl-2-oxo-2,3-dihydro-1,3-benzoxazol-6-yl)acrylamide] | 265 to 266 °C
7 | Cn1ncc(/C=C/C(=O)Nc2ccccc2CO)c1-c1ccc(F)cc1 [Example 184, (2E)-3-[5-(4-Fluorophenyl)-1-methyl-1H-pyrazol-4-yl]-N-[2-(hydroxymethyl)phenyl]acrylamide] | 119 to 120 °C
8 | COP(=O)(Cc1ccc(NC(=O)/C=C/c2cnn(C)c2-c2ccc(C)cc2)cc1)OC | 207 to 209 °C
9 | COP(=O)(Cc1ccc(NC(=O)/C=C/c2cnn(C)c2-c2cccc(Cl)c2)cc1)OC | 248 to 249 °C
10 | CCOC(=O)Cc1ccc(NC(=O)CCc2cnn(-c3ccccc3)c2-c2ccccc2)cc1 [Example 81, N-[4-(Ethoxycarbonylmethyl)phenyl]-3-(1,5-diphenyl-1H-pyrazol-4-yl)propionamide] | 143 to 144 °C
11 | CCOP(=O)(Cc1ccc(NC(=O)/C=C/c2cnn(C)c2-c2ccc(C)cc2)cc1)OCC | 243 to 245 °C
12 | Cn1ncc(/C=C/C(=O)Nc2ccc(CNC(=O)OC(C)(C)C)cc2)c1-c1ccc(F)cc1 [Example 170, tert-Butyl 4-({(2E)-3-[5-(4-fluorophenyl)-1-methyl-1H-pyrazol-4-yl]prop-2-enoyl]amino)benzylcarbamate] | 222 to 223 °C
13 | Cn1ncc(/C=C/C(=O)Nc2ccc(CN3C(=O)CNC3=O)cc2)c1-c1ccc(F)cc1 [Example 157, (2E)-N-{4-[(2,5-Dioxo-1-imidazolidinyl)methyl]phenyl}-3-[5-(4-fluorophenyl)-1-methyl-1H-pyrazol-4-yl]acrylamide] | 249 to 250 °C
14 | Cn1ncc(/C=C/C(=O)Nc2ccc(CSc3ccccc3)cc2)c1-c1ccc(F)cc1 [Example 212, (2E)-3-[5-(4-Fluorophenyl)-1-methyl-1H-pyrazol-4-yl]-N-{4-[(phenylthio)methyl]phenyl}acrylamide] | 197 to 198 °C
15 | COP(=O)(Cc1ccc(NC(=O)CCc2cnn(C)c2-c2ccc(F)cc2)cc1)OC | 142 to 143 °C
16 | CCOP(=O)(Cc1ccc(NC(=O)/C=C/c2cn(C)nc2-c2ccc(F)cc2)cc1)OCC | 197 to 198 °C
17 | CCOP(=O)(Cc1ccc(NC(=O)/C=C/c2cnn(C)c2-c2cccc(Cl)c2)cc1)OCC | 214 to 216 °C
18 | Cn1ncc(/C=C/C(=O)Nc2ccc(CS(=O)(=O)c3c[nH]nn3)cc2)c1-c1ccc(F)cc1 [Example 227, (2E)-3-[5-(4-Fluorophenyl)-1-methyl-1H-pyrazol-4-yl]-N-{4-[(1H-1,2,3-triazol-4-ylsulfonyl)methyl]phenyl}acrylamide] | 204 to 206 °C
19 | Cn1nnnc1S(=O)(=O)Cc1ccc(NC(=O)/C=C/c2cnn(C)c2-c2ccc(F)cc2)cc1 [Example 226, (2E)-3-(5-(4-Fluorophenyl)-1-methyl-1H-pyrazol-4-yl]-N-(4-{[(1-methyl-1H-tetrazol-5-yl)sulfonyl]methyl}phenyl)acrylamide] | 224 to 225 °C
20 | COP(=O)(Cc1ccc(NC(=O)/C=C/c2cnn(C)c2-c2cccc(F)c2)cc1)OC | 224 to 226 °C
21 | COc1ccc(-c2c(/C=C/C(=O)Nc3ccc(CP(=O)(OC)OC)cc3)cnn2C)cc1 | 199 to 200 °C

Results, then the compound that gave them:

Row | melting point | SMILES
22 | 260 to 261 °C | Cn1ncc(/C=C/C(=O)Nc2ccc([S+](C)[O-])cc2)c1-c1ccc(F)cc1 (centres unmarked) [Example 217, (2E)-3-[5-(4-Fluorophenyl)-1-methyl-1H-pyrazol-4-yl]-N-[4-(methylsulfinyl)phenyl]acrylamide]
23 | 217 to 218 °C | Cc1csc(Cc2ccc(NC(=O)/C=C/c3cnn(C)c3-c3ccc(F)cc3)cc2)n1 [Example 127, (2E)-3-[5-(4-Fluorophenyl)-1-methyl-1H-pyrazol-4-yl]-N-(4-[(4-methyl-1,3-thiazol-2-yl)methyl)phenyl]acrylamide]
24 | 237 to 238 °C | CCc1nccn1Cc1ccc(NC(=O)/C=C/c2cnn(C)c2-c2ccc(F)cc2)cc1 [Example 191, (2E)-N-{4-[(2-Ethyl-1H-imidazol-1-yl)methyl]phenyl}-3-[5-(4-fluorophenyl)-1-methyl-1H-pyrazol-4-yl]acrylamide]
25 | 224 to 226 °C | CCc1cn(Cc2ccc(NC(=O)/C=C/c3cnn(C)c3-c3ccc(F)cc3)cc2)cn1 [Example 171, (2E)-N-{4-[(4-Ethyl-1H-imidazol-1-yl)methyl]phenyl}-3-[5-(4-fluorophenyl)-1-methyl-1H-pyrazol-4-yl]acrylamide]
26 | 245 to 246 °C | Cn1ncc(/C=C/C(=O)Nc2ccc(CC(=O)O)cc2)c1-c1ccc(F)cc1 [Example 133, [4-({(2E)-3-[5-(4-fluorophenyl)-1-methyl-1H-pyrazol-4-yl]prop-2-enoyl]amino}phenyl]acetic acid]
27 | 202 to 203 °C | CCOC(=O)c1ccc(NC(=O)/C=C/c2cnn(C)c2-c2ccc(F)cc2)cc1 [Example 180, ethyl 4-({(2E)-3-[5-(4-fluorophenyl)-1-methyl-1H-pyrazol-4-yl]prop-2-enoyl}amino)benzoate]
28 | 160 to 162 °C | Cn1ncc(/C=C/C(=O)Nc2ccc(CCn3ccnc3)cc2)c1-c1ccc(F)cc1 [Example 187, (2E)-3-{5-(4-Fluorophenyl)-1-methyl-1H-pyrazol-4-yl}-N-{4-[2-(1H-imidazol-1-yl)ethyl]phenyl}acrylamide]
29 | 233 to 234 °C | CC(=O)NCc1ccc(NC(=O)/C=C/c2cnn(C)c2-c2ccc(F)cc2)cc1 [Example 189, (2E)-N-{4-[(Acetylamino)methyl]phenyl}-3-[5-(4-fluorophenyl)-1-methyl-1H-pyrazol-4-yl]acrylamide]
30 | 201 to 202 °C | Cn1ncc(/C=C/C(=O)Nc2ccc(CCc3nccs3)cc2)c1-c1ccc(F)cc1 [Example 130, (2E)-3-[5-(4-Fluorophenyl)-1-methyl-1H-pyrazol-4-yl]-N-(4-[2-(1,3-thiazol-2-yl)ethyl]phenyl}acrylamide]
31 | 157 to 158 °C | CCSCc1ccc(NC(=O)/C=C/c2cnn(C)c2-c2ccc(F)cc2)cc1 [Example 210, (2E)-N-{4-[(Ethylthio)methyl]phenyl}-3-[5-(4-fluorophenyl)-1-methyl-1H-pyrazol-4-yl]acrylamide]
32 | 223 to 224 °C | Cn1ncc(/C=C/C(=O)Nc2ccc(Cc3nnco3)cc2)c1-c1ccc(F)cc1 [Example 129, (2E)-3-[5-(4-Fluorophenyl)-1-methyl-1H-pyrazol-4-yl]-N-[4-(1,3,4-oxadiazol-2-ylmethyl)phenyl]acrylamide]
33 | 229 to 230 °C | Cn1ncc(/C=C/C(=O)Nc2ccc(Cn3ccnc3CO)cc2)c1-c1ccc(F)cc1 [Example 200, (2E)-3-[5-(4-Fluorophenyl)-1-methyl-1H-pyrazol-4-yl]-N-(4-{[2-(hydroxymethyl)-1H-imidazol-1-yl]methyl}phenyl)acrylamide]
34 | 240 to 241 °C | Cn1ncc(/C=C/C(=O)Nc2ccc(C[S+](C)[O-])cc2)c1-c1ccc(F)cc1 (centres unmarked) [Example 215, (2E)-3-(5-(4-fluorophenyl)-1-methyl-1H-pyrazol-4-yl)-N-(4-((methylsulfinyl)methyl)phenyl)acrylamide]
35 | 258 to 259 °C | CC(C)C(=O)NCc1ccc(NC(=O)/C=C/c2cnn(C)c2-c2ccc(F)cc2)cc1 [Example 139, (2E)-3-[5-(4-Fluorophenyl)-1-methyl-1H-pyrazol-4-yl]-N-{4-[(isobutyrylamino)methyl]phenyl}acrylamide]
36 | 182 to 183 °C | Cn1ncc(/C=C/C(=O)Nc2ccc(CSc3c[nH]nn3)cc2)c1-c1ccc(F)cc1 [Example 213, (2E)-3-[5-(4-Fluorophenyl)-1-methyl-1H-pyrazol-4-yl]-N-(4-[(1H-1,2,3-triazol-4-ylthio)methyl)phenyl]acrylamide]
37 | 271 to 272 °C | CC(C)c1nccn1Cc1ccc(NC(=O)/C=C/c2cnn(C)c2-c2ccc(F)cc2)cc1 [Example 162, (2E)-3-[5-(4-Fluorophenyl)-1-methyl-1H-pyrazol-4-yl]-N-{4-[(2-isopropyl-1H-imidazol-1-yl)methyl]phenyl}acrylamide]
38 | 211 to 212 °C | CCc1csc(Cc2ccc(NC(=O)/C=C/c3cnn(C)c3-c3ccc(F)cc3)cc2)n1 [Example 125, (2E)-N-{4-[(4-ethyl-1,3-thiazol-2-yl)methyl]phenyl}-3-[5-(4-fluorophenyl)-1-methyl-1H-pyrazol-4-yl]acrylamide]
39 | 260 to 261 °C | Cc1cncn1Cc1ccc(NC(=O)/C=C/c2cnn(C)c2-c2ccc(F)cc2)cc1 [Example 201, (2E)-3-[5-(4-Fluorophenyl)-1-methyl-1H-pyrazol-4-yl]-N-{4-[(5-methyl-1H-imidazol-1-yl)methyl]phenyl}acrylamide]
40 | 159 to 161 °C | Cn1nnc(Cc2ccc(NC(=O)/C=C/c3cnn(C)c3-c3ccc(F)cc3)cc2)n1 [Example 102, (2E)-3-[5-(4-Fluorophenyl)-1-methyl-1H-pyrazol-4-yl]-N-{4-[(2-methyl-2H-tetrazol-5-yl)methyl]phenyl}acrylamide]
41 | 262 to 263 °C | Cn1ncc(/C=C/C(=O)Nc2ccc(Cc3n[nH]c(=O)o3)cc2)c1-c1ccc(F)cc1 [Example 86, (2E)-3-[5-(4-Fluorophenyl)-1-methyl-1H-pyrazol-4-yl]-N-{4-[(5-oxo-4,5-dihydro-1,3,4-oxadiazol-2-yl)methyl]phenyl}acrylamide]
